Laboratory results from US9206457B2, “Utilization of pharmacological chaperones to improve manufacturing and purification of biologics” (Amicus Therapeutics, Inc., priority 2009, dated 2015).
Numbering of substitutions follows the chain as printed.

Tests used:
[1] = target: T1, recombinant human GAA (Myozyme®) (Homo sapiens, UniProt P10253); test: SYPRO Orange thermal stability assay (heat denaturation) of GAA; type: binding
T1 construct: purchased Genzyme Corp
Source text: The thermal stability assay utilizes heat to induce protein denaturation, which is monitored using a SYPRO Orange dye that fluoresces upon binding to hydrophobic amino acids (which are not exposed in a folded protein).
FIG. 3 depicts the results of a thermal stability assay that utilizes heat to induce protein denaturation, which is monitored using a SYPRO Orange dye that fluoresces upon binding to hydrophobic amino acids (which are not exposed in a folded protein). […] The experiment was conducted at pH 7.4.
Denaturation is monitored using a SYPRO Orange dye that fluoresces upon binding to hydrophobic amino acids (which are not exposed in a folded protein).
The thermal stability was performed at pH 7.4 for two formulations, which corresponds to the pH of the ER.
A thermal stability experiment as generally described in Example 1 was performed on four compositions: […]

[2] = target: T1, recombinant human GAA (Myozyme®); test: Residual GAA enzyme activity (4-MU-α-glucose) on extended incubation at 37° C.; type: biochemical; conditions: 50 μM 1-DNJ, pH 7.4, 37° C., over 24 hours
Procedure: FIG. 2A depicts the effects of 1-DNJ-HCl on recombinant human GAA (rhGAA; Myozyme®, Genzyme Corp.) activity at neutral pH (7.4) or lysosomal pH (5.2) at 37° C. GAA activity was evaluated to assess the ability of an ASSC to prolong the activity of rhGAA over time. Myozyme (45 nM) was incubated in pH 7.4 or pH 5.2 buffer with or without 50 μM 1-DNJ at 37° C. over 24 hours. Samples were assayed for GAA enzyme activity using 4-MU-α-glucose at 0, 3, 6 and 24 hours and the residual GAA activity was expressed as % of initial activity.
Residual GAA activity was determined for four formulations:
Activity was measured, based on the % of initial activity (t=0) over 24 hours. Samples were assayed for GAA enzyme activity based on the hydrolysis of the fluorogenic substrate 4-MU-α-glucose at 0, 3, 6 and 24 hours. The GAA activity was expressed as % of initial activity, i.e. residual activity.

[3] = target: T1, recombinant human GAA (Myozyme®); test: SYPRO Orange GAA unfolding over time at 37° C.; type: binding; conditions: 50 μM DNJ added at 3 or 6 hours, pH 7.4, 37° C.
[4] = target: T2, α-Glucosidase (GAA) (Homo sapiens, UniProt P10253); test: GAA activity in conditioned media of COS-7 cells transfected with human GAA plasmid, 72 h; type: cell-based; conditions: 72 hours expression
T2 construct: expressed in transfected cells; host or cells: COS-7

[5] = target: T3, α-Gal A (Fabrazyme®) (Homo sapiens, UniProt P06280); test: SYPRO Orange thermal stability assay (heat denaturation) of α-Gal A; type: binding; conditions: 10 and 100 μM DGJ, pH 7.4
T3 construct: purchased
T3 sequence (P06280 32-429): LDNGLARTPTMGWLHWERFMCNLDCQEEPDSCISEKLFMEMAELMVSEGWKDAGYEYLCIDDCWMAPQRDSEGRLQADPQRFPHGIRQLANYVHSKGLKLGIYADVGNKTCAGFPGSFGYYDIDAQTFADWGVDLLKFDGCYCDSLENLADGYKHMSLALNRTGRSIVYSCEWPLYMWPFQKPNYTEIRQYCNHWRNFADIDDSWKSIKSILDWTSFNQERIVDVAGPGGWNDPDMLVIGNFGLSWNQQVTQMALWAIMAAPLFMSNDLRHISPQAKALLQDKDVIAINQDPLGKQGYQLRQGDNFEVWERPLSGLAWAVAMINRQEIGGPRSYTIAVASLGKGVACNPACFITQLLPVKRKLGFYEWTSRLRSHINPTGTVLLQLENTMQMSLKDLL

[6] = target: T4, α-Gal A (Homo sapiens, UniProt P06280); test: SYPRO Orange α-Gal A denaturation over time at 37° C.; type: binding; conditions: 50 μM DGJ added at 3 or 6 hours, pH 7.4, 37° C.
T4 construct: expressed in transfected cells; host or cells: COS-7
T4 sequence (P06280 32-429): T3 sequence (P06280 32-429)

[7] = target: T4, α-Gal A; test: α-Gal A activity in conditioned media of transiently transfected COS-7 cells, 48 h, concanavalin A capture; type: cell-based; conditions: 100 μM chaperone, 48 hours expression
[8] = target: T4, α-Gal A; test: α-Gal A activity in conditioned media of COS-7 cells transfected with GLA plasmid, 72 h; type: cell-based; conditions: 72 hours expression
Procedure: COS-7 cells were transiently transfected with empty vector or a plasmid coding for the α-Gal A gene (GLA). […] After 72-hours of protein expression, the conditioned media from each transfection was harvested, and the level of α-Gal A activity was assessed using the substrate […].

[9] = target: T5, acid β-glucosidase (GCase; Cerezyme®) (Homo sapiens, UniProt P04062, R534H); test: SYPRO Orange thermal stability assay (heat denaturation) of GCase; type: binding
T5 construct: purchased Genzyme Corp
T5 sequence (P04062 40-536 R534H): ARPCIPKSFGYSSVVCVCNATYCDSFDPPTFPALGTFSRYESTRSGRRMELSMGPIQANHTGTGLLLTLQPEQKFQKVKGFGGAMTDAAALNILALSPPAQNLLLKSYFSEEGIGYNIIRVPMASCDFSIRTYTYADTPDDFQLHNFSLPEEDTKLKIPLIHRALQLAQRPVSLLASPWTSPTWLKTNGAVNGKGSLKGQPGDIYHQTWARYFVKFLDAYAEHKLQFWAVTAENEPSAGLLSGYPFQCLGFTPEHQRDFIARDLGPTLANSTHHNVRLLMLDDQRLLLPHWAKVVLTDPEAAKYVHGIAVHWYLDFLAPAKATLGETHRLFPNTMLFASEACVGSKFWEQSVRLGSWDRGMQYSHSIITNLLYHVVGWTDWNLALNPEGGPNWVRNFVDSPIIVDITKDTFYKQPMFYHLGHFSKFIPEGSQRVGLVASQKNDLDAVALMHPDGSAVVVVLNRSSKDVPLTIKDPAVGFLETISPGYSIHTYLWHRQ
Procedure: FIG. 4 depicts the results of a thermal stability assay that utilizes heat to induce protein denaturation, which is monitored using a SYPRO Orange dye that fluoresces upon binding to hydrophobic amino acids (which are not exposed in a folded protein). Isofagomine increases acid β-glucosidase thermostability as evident by increases in melting temperature in a dose-dependent manner. The experiment was conducted at pH 7.4.
FIG. 8 depicts the stability of recombinant human GCase (Cerazyme®, Genzyme Corp.) at neutral pH (7.4) or acidic pH (5.2) in the presence or absence of 10 μM of IFG as determined in a thermal stability assay. The thermal stability assay utilizes heat to induce protein denaturation, which is monitored using a SYPRO Orange dye that fluoresces upon binding to hydrophobic amino acids (which are not exposed in a folded protein).
A thermal stability experiment as generally described in Example 1 was performed on three compositions of GCase (Cerezyme®):
A thermal stability experiment as generally described in Examples 1 and 4 was performed on three compositions of GCase (Cerezyme®):
Protein denaturation was monitored using SYPRO Orange dye which fluoresces when bound to exposed hydrophobic amino acids.

[10] = target: T5, acid β-glucosidase (GCase; Cerezyme®); test: SYPRO Orange GCase unfolding over time at 37° C.; type: binding
Procedure: FIG. 5 depicts a SYPRO Orange thermal stability experiment to monitor the unfolding of acid β-glucosidase (GCase; Cerezyme®). GCase (2 μM) was incubated in pH 7.4 or pH 5.2 buffer with or without 10 μM IFG at 37° C. and protein unfolding was monitored every hour over 24 hours.
FIG. 9 depicts a SYPRO Orange thermal stability experiment to monitor the unfolding of acid β-glucosidase (GCase; Cerezyme®). GCase was incubated in pH 7.4 or pH 5.2 buffer with or without 10 μM or 100 μM IFG at 37° C., and protein unfolding was monitored every hour over 24 hours.
FIG. 15 depicts that addition of 50 μM IFG at 3 or 6 hours after incubation of GCase (Cerezyme®) in neutral (pH 7.4) buffer at 37° C. prevents further denaturation of the enzyme as measured by SYPRO dye fluorescence.
In this thermal stability experiment, the concentration of IFG was 10 μM in formulation (3).
In this thermal stability experiment, the concentration of IFG was 0, 10 μM, or 100 μM as described above.
The stability of α-Gal A, α-Glucosidase (GAA), and GCase (Cerezyme®) at 37° C. in neutral (pH 7.4) buffer was measured using the SYPRO Orange for 3, 6 or 24 hours.

[11] = target: T6, GCase (Cerezyme®) (Homo sapiens, UniProt P04062, R534H); test: GCase activity in human plasma at 37° C. (4-MUG); type: in vitro ADME; conditions: IFG 3 μM, 30 μM, 100 μM, over 4 hours
T6 construct: purchased Genzyme Corp
T6 sequence (P04062 40-536 R534H): T5 sequence (P04062 40-536 R534H)
Procedure: FIG. 10 depicts the effects of IFG on recombinant human GCase (GCase; Cerezyme®, Genzyme Corp.) activity in human plasma at 37° C. GCase activity was evaluated to assess the ability of an ASSC to prolong the activity of GCase in human plasma over time. Cerezyme (0.5 μM) was incubated in human plasma with increasing concentrations of IFG (3 μM, 30 μM, or 100 μM) at 37° C. over 4 hours. Samples were assayed for GCase enzyme activity using 4-MU-β-glucose at 0.25, 0.5, 1, 2 and 4 hours and the residual GCase activity was expressed as % of initial activity.
The activity of GCase (0.5 μM; Cerazyme®) at 37° C. in human plasma was assessed for increasing concentrations of IFG (3 μM, 30 μM, and 100 μM) as a function time using the substrate 4-MUG.

[12] = target: T6, GCase (Cerezyme®); test: GCase activity over time in neutral or acidic buffer at 37° C. (4-MUG); type: biochemical; conditions: 1 μM IFG, 10 nM GCase, pH 7.4, 37° C.
[13] = target: T7, GCase (Homo sapiens, UniProt P04062); test: GCase activity in conditioned media of COS-7 cells transfected with human GBA1 plasmid, 72 h; type: cell-based; conditions: 72 hours expression
T7 construct: expressed in transfected cells; host or cells: COS-7
T7 sequence (P04062 40-536): T5 sequence (P04062 40-536 R534H) with H495R

[14] = target: T8, acid β-glucosidase (Homo sapiens, UniProt P04062); conditions: 100 μM chaperone, 48 hours expression, COS-7
T8 sequence (P04062 40-536): T5 sequence (P04062 40-536 R534H) with H495R

OC[C@H]1NC[C@H](O)[C@@H](O)[C@@H]1O [DNJ, 1-deoxynorjirimycin]
GAA thermal stability (heat required to denature) ([1]; 100 μM DNJ, pH 7.4, versus formulation without ASSC): required significantly more heat to denature
GAA thermostability (melting temperature) ([1]; 1, 10, 100 μM 1-DNJ-HCl, pH 7.4, dose-dependent): increases GAA thermostability
Effect on loss of GAA enzyme activity [2]: ameliorates the loss of GAA enzyme activity
Further denaturation of GAA [3]: prevented further denaturation
GAA activity recovered from conditioned media [4]: little effect

OC[C@H]1NC[C@H](O)[C@@H](O)[C@H]1O [DGJ, 1-deoxygalactonorjirimycin]
α-Gal A thermal stability (melting temperature) [5]: increases α-Gal A thermal stability in a dose-dependent manner
Further denaturation of α-Gal A [6]: prevented further denaturation
α-Gal A activity from conditioned media [7]: increased the activities
α-Gal A activity from conditioned media [8]: increased slightly

Myozyme: recombinant human GAA (Myozyme®, Genzyme Corp.)
Stability of Myozyme at lysosomal versus neutral pH (thermal stability assay) ([1]; pH 5.2 versus pH 7.4, no chaperone): much more stable at lysosomal pH (5.2) than at neutral pH (7.4)

OC[C@H]1CNC[C@@H](O)[C@@H]1O [IFG, (3R,4R,5R)-5-(hydroxymethyl)-3,4-piperidinediol]
Stability of recombinant human GCase upon thermal challenge ([9]; 10 μM IFG, pH 7.4 (Example 8)): significantly increases stability
GCase thermal stability (melting temperature) ([9]; 10 and 100 μM IFG, pH 7.4): increases GCase thermal stability in a dose-dependent manner
GCase unfolding ([10]; 10 μM IFG, pH 7.4, 37° C., over 24 hours (Example 5)): prevented GCase unfolding
Stability of GCase (unfolding over time) ([10]; 10 μM and 100 μM IFG, neutral pH, 37° C. (Example 9)): significantly increases the stability
Further denaturation of GCase ([10]; 50 μM IFG added at 3 or 6 hours, pH 7.4, 37° C.): prevented further denaturation
Stability of GCase activity in human plasma [11]: significantly increases the stability of GCase and prevents enzyme inactivation
Stability of GCase activity over time [12]: significantly increases the stability
GCase activity recovered from conditioned media [13]: increased the activity
Acid β-glucosidase activity from conditioned media [14]: increased the activities

O[C@H]1[C@H](O)CNC[C@@H]1C(F)F [AT3375]
GCase activity recovered from conditioned media [13]: increased the activity
α-Gal A activity from conditioned media [8]: increased slightly
